Measurements published in ChEMBL document CHEMBL2203052, “Synthesis and antimycobacterial activity of calpinactam derivatives” (2012).
In brackets after ≈: the same amount, converted by molar mass.

Test system: Mycolicibacterium smegmatis
Experiment: Antimycobacterial activity against Mycobacterium smegmatis by liquid microdilution method
Type: functional

| Structure (SMILES) | MIC [µg/mL] |
| --- | --- |
| CC[C@H](C)[C@@H](NC(=O)[C@@H](CCC(=O)O)NC(=O)[C@H](Cc1cnc[nH]1)NC(=O)[C@H](CC(C)C)NC(=O)[C@@H](C)N)C(=O)N[C@H]1CCCCNC1=O | > 50 |
| CC[C@H](C)[C@@H](NC(=O)[C@H](CCC(=O)O)NC(=O)[C@H](Cc1cnc[nH]1)NC(=O)[C@H](CC(C)C)NC(=O)[C@H](N)Cc1ccccc1)C(=O)N[C@H]1CCCCNC1=O | > 50 |
| CC[C@H](C)[C@@H](NC(=O)[C@@H](CCC(=O)O)NC(=O)[C@H](Cc1cnc[nH]1)NC(=O)[C@H](CC(C)C)NC(=O)[C@H](N)Cc1ccccc1)C(=O)N[C@@H](C)C(=O)O | > 50 |
| CC[C@H](C)[C@@H](NC(=O)[C@@H](CCC(=O)O)NC(=O)[C@H](Cc1cnc[nH]1)NC(=O)[C@H](C)NC(=O)[C@H](N)Cc1ccccc1)C(=O)N[C@H]1CCCCNC1=O | > 50 |
| CC[C@H](C)[C@@H](NC(=O)[C@@H](C)NC(=O)[C@H](Cc1cnc[nH]1)NC(=O)[C@H](CC(C)C)NC(=O)[C@H](N)Cc1ccccc1)C(=O)N[C@H]1CCCCNC1=O | 6.25 (≈ 8.8 µM) |
| CC[C@H](C)[C@@H](NC(=O)[C@@H](CCC(=O)O)NC(=O)[C@H](Cc1cnc[nH]1)NC(=O)[C@H](CC(C)C)NC(=O)[C@H](N)Cc1ccccc1)C(=O)N[C@@H]1CCCCNC1=O | > 50 |
| CC[C@H](C)[C@@H](NC(=O)[C@@H](CCC(=O)O)NC(=O)[C@H](Cc1cnc[nH]1)NC(=O)[C@@H](N)CC(C)C)C(=O)N[C@H]1CCCCNC1=O | > 50 |
| CC[C@H](C)[C@@H](NC(=O)[C@@H](CCC(=O)O)NC(=O)[C@H](C)NC(=O)[C@H](CC(C)C)NC(=O)[C@H](N)Cc1ccccc1)C(=O)N[C@H]1CCCCNC1=O | > 50 |
| CC[C@H](C)[C@@H](NC(=O)[C@@H](CCC(=O)O)NC(=O)[C@H](Cc1cnc[nH]1)NC(=O)[C@H](CC(C)C)NC(=O)[C@H](N)Cc1ccccc1)C(=O)N[C@@H](CCCCN)C(=O)O | > 50 |
| CC[C@H](C)[C@@H](NC(=O)[C@@H](CCC(=O)O)NC(=O)[C@H](Cc1cnc[nH]1)NC(=O)[C@H](CC(C)C)NC(=O)[C@H](N)Cc1ccccc1)C(=O)N[C@H]1CCCNC1=O | > 50 |
| CC[C@H](C)[C@@H](NC(=O)[C@@H](CCC(=O)O)NC(=O)[C@H](Cc1cnc[nH]1)NC(=O)[C@H](CC(C)C)NC(=O)[C@H](N)Cc1ccccc1)C(=O)O | > 50 |
| CC[C@H](C)[C@@H](NC(=O)[C@@H](CCC(=O)O)NC(=O)[C@H](Cc1cnc[nH]1)NC(=O)[C@H](CC(C)C)NC(=O)[C@@H](Cc1ccccc1)NC(C)=O)C(=O)N[C@H]1CCCCNC1=O | > 50 |
| CC(C)C[C@H](NC(=O)[C@H](N)Cc1ccccc1)C(=O)N[C@@H](Cc1cnc[nH]1)C(=O)N[C@H](CCC(=O)O)C(=O)N[C@H](C)C(=O)N[C@H]1CCCCNC1=O | > 50 |

More lines, now with the values ahead:

| MIC [µg/mL] | Structure (SMILES) |
| --- | --- |
| > 50 | CC[C@H](C)[C@@H](NC(=O)[C@@H](CCC(=O)O)NC(=O)[C@@H](Cc1cnc[nH]1)NC(=O)[C@H](CC(C)C)NC(=O)[C@H](N)Cc1ccccc1)C(=O)N[C@H]1CCCCNC1=O |
| 0.78 (≈ 1.02 µM) | CC[C@H](C)[C@@H](NC(=O)[C@@H](CCC(=O)O)NC(=O)[C@H](Cc1cnc[nH]1)NC(=O)[C@H](CC(C)C)NC(=O)[C@H](N)Cc1ccccc1)C(=O)N[C@H]1CCCCNC1=O [CALPINACTAM] |
| > 50 | CC[C@H](C)[C@@H](NC(=O)[C@@H](CCC(=O)O)NC(=O)[C@H](Cc1cnc[nH]1)NC(=O)[C@H](CC(C)C)NC(=O)[C@H](N)Cc1ccccc1)C(=O)NC1CCCCCC1 |
| > 50 | CC[C@H](C)[C@H](NC(=O)[C@@H](CCC(=O)O)NC(=O)[C@H](Cc1cnc[nH]1)NC(=O)[C@H](CC(C)C)NC(=O)[C@H](N)Cc1ccccc1)C(=O)N[C@H]1CCCCNC1=O |
| > 50 | CC[C@H](C)[C@@H](NC(=O)[C@@H](CCC(=O)O)NC(=O)[C@H](Cc1cnc[nH]1)NC(=O)[C@@H](CC(C)C)NC(=O)[C@H](N)Cc1ccccc1)C(=O)N[C@H]1CCCCNC1=O |
| > 50 | CC[C@H](C)[C@@H](NC(=O)[C@@H](CCC(=O)O)NC(=O)[C@H](Cc1cnc[nH]1)NC(=O)[C@H](CC(C)C)NC(=O)[C@@H](N)Cc1ccccc1)C(=O)N[C@H]1CCCCNC1=O |
